Tests used:
E. coli ATCC 25922 = assay: microbe, parasite or virus in culture; assay type: cell-based
Procedure: (§1) Experiments were performed with two biological replicates.

[1] = tested on: MDR E. coli B2 (mcr-1 + blaNDM-5); assay: microbe, parasite or virus in culture; assay type: cell-based
Procedure: as §1

[2] = tested on: S. aureus 215 (cfr + LZD^R); assay: microbe, parasite or virus in culture; assay type: cell-based; details: S. aureus 215 (cfr + LZD^R)
Procedure: as §1

S. aureus ATCC 29213 = assay: microbe, parasite or virus in culture; assay type: cell-based
Procedure: as §1

[3] = tested on: S. enteritidis ATCC 13076; assay: microbe, parasite or virus in culture; assay type: cell-based
Procedure: as §1

MRSA T144 = assay: MIC/MBC, broth micro-dilution; assay type: cell-based, Staphylococcus aureus; details: MRSA T144
Procedure: as §1

E. coli 1A34 = assay: MIC, tigecycline-resistant clinical isolate; assay type: cell-based; details: E. coli 1A34, anal swab, tigecycline-resistant clinical isolate; broth micro-dilution
Procedure: as §1

E. coli 1C1 = assay: MIC, tigecycline-resistant clinical isolate; assay type: cell-based; details: E. coli 1C1, dust, tigecycline-resistant clinical isolate; broth micro-dilution
Procedure: as §1

E. coli 1F16 = assay: MIC, tigecycline-resistant clinical isolate; assay type: cell-based; details: E. coli 1F16, feces, tigecycline-resistant clinical isolate; broth micro-dilution
Procedure: as §1

E. coli 1F31 = assay: MIC, tigecycline-resistant clinical isolate; assay type: cell-based; details: E. coli 1F31, tigecycline-resistant clinical isolate; broth micro-dilution
Procedure: as §1

E. coli 1N28 = assay: MIC, tigecycline-resistant clinical isolate; assay type: cell-based; details: E. coli 1N28, nasal swab, tigecycline-resistant clinical isolate; broth micro-dilution
Procedure: as §1

E. coli 1N31 = assay: MIC, tigecycline-resistant clinical isolate; assay type: cell-based; details: E. coli 1N31, tigecycline-resistant clinical isolate; broth micro-dilution
Procedure: as §1

E. coli 2A19 = assay: MIC, tigecycline-resistant clinical isolate; assay type: cell-based; details: E. coli 2A19, tigecycline-resistant clinical isolate; broth micro-dilution
Procedure: as §1

E. coli 2W25 = assay: MIC, tigecycline-resistant clinical isolate; assay type: cell-based; details: E. coli 2W25, water, tigecycline-resistant clinical isolate; broth micro-dilution
Procedure: as §1

Shigella 1F25 = assay: MIC, tigecycline-resistant clinical isolate; assay type: cell-based; details: Shigella 1F25, feces, broth micro-dilution
Procedure: as §1

[4] = Hydrophobicity by RP-HPLC (percent acetonitrile at elution); assay type: physicochemical; details: acetonitrile in water, 0.1% (v/v) TFA, higher percent = higher hydrophobicity
Procedure: All peptides used in this study were synthesized by GL Biochem (Shanghai, China) using a solid phase peptide synthesis (SPPS) method, and their accurate molecular weights were determined by matrix-assisted laser desorption/ionization time-of-flight mass spectrometry (MALDI-TOF MS). The peptide purity (>95%) and retention time were determined by reversed-phase high-performance liquid chromatography (HPLC).
A collection of tryptophan-rich linear peptides on the basis of MP196 (RWRWRW-NH2) was designed by increasing peptide length or positive charge or hydrophobicity, replacing amino acids and/or N-terminal acetylation (Table 1). These peptides were synthesized via solid-phase peptide synthesis (SPPS), purified by reverse-phase high-performance liquid chromatography (RP-HPLC) (Figure S1) and validated by matrix-assisted laser desorption/ionization time-of-flight mass spectrometry (MALDI-TOF MS) (Figure S2). […] All engineered peptides belong to cationic AMPs, with 3 or 6 net charges. The percentage of acetonitrile at RP-HPLC elution was regarded as a relative measure of peptides’ hydrophobicity. […] The hydrophobicity order was listed as follows: WRK-12 > WL-9 > WR-6 > WV-9 > KW-6 > WKK-12 > WR-12 > MP196 > WK-6.

pepsin = pepsin 10 mg/mL, 1 h preincubation; residual MIC against E. coli 1F28
Procedure: Thermal, pH and proteolytic stability. WRK-12 was preincubated at different temperatures (from 25 to 121 °C), pH (from 2 to 12) or proteases (pepsin, trypsin and papain, final concentration 10 mg/mL) for 1 h. Samples after pH treatment were readjusted to pH = 7.2 to determine the residual antibacterial activity by MIC tests. Samples after proteases treatment were heated at 80 °C for 30 min, and centrifuged at 13,000× g for 30 min to precipitate proteases, and the residual antibacterial activity of supernatants was tested by MIC analysis.

E. coli 1F28 = assay: ROS measurements (DCFH-DA); assay type: cell-based; details: 0 to 128 μg/mL, 60 min
Procedure: 2′,7′-Dichlorodihydrofluorescein diacetate (DCFH-DA, 10 μM) was incubated with E. coli 1F28 cells for 30 min. After washing with 0.01 M PBS, the probed cells were mixed with WRK-12 (0 to 128 μg/mL) or colistin (128 μg/mL) for 60 min. The ROS levels were assessed by monitoring the fluorescence intensity (λexcitation = 488 nm, λemission = 525 nm) using a Microplate reader (Tecan, Männedorf, Switzerland).

E. coli 1F28 biofilm = assay: Prevention of biofilm formation (crystal violet); assay type: cell-based; details: 24 h
Procedure: The prevention of biofilm formation was assessed as described previously. Briefly, bacteria (1 × 10^5 CFUs per mL) were exposed to WRK-12 solutions (with final concentrations ranging from 0.25 to 32 μg/mL). As an untreated control, bacteria were exposed to MHB without drugs. After 24 h incubation at 37 °C in a humidified atmosphere, planktonic bacteria were removed by phosphate buffer solution (PBS). Biofilms were fixed with methanol for 15 min, then sucked out the fixative and air dry naturally. Then, biofilms were stained with 0.1% crystal violet for 15 min, washed and dried naturally. Finally, 33% acetic acid was used to dissolve crystal violet. The optical density at 570 nm was determined as a measure of biofilm mass.

[5] = in 0.01 M PBS or water; compared among four active AMPs
[6] = broth micro-dilution CLSI 2018, MHB, 18 h, 37 °C
[7] = lowest concentration killing 99.9%, plated on MHA

Ac-WRLRWKTRWRLK-NH2 [WRK-12] gave an MBC (E. coli ATCC 25922; ATCC 25922, 4 h) of 8 µg/mL, an MIC (E. coli ATCC 25922; ATCC 25922, 18 h) of 4 µg/mL and an MBC ([1]; MDR B2 (mcr-1 + blaNDM-5, 4 h)) of 4 µg/mL. For the same substance, the “MIC decrease relative to WL-9” value ([1]; MDR E. coli B2, insertion of three positive amino acids in WL-9) was 4 fold, the MIC [2, 6] was 2 µg/mL and the MBC [2, 7] was 2 µg/mL. It also gave an MBC (S. aureus ATCC 29213; ATCC 29213, 4 h) of 4 µg/mL, an MIC (S. aureus ATCC 29213; ATCC 29213, 18 h) of 4 µg/mL and an MBC ([3]; ATCC 13076, 4 h) of 4 µg/mL. For the same substance, the MIC ([3]; ATCC 13076, 18 h) was 4 µg/mL, the MIC (MRSA T144; [6]) was 2 µg/mL and the MBC (MRSA T144; [7]) was 2 µg/mL. The MIC (E. coli 1A34) was 2 µg/mL, the MIC (E. coli 1C1) was 4 µg/mL and the MIC (E. coli 1F16) was 4 µg/mL. It also gave an MIC (E. coli 1F31) of 4 µg/mL, an MIC (E. coli 1N28) of 8 µg/mL and an MIC (E. coli 1N31) of 16 µg/mL. The MIC (E. coli 2A19) was 16 µg/mL, the MIC (E. coli 2W25) was 4 µg/mL and the MIC (Shigella 1F25) was 8 µg/mL. The “H (hydrophobicity, percent of acetonitrile at HPLC elution)” value [4] was 36.513 percent acetonitrile, the proteolytic stability (pepsin) was “resistant” and the “ROS production, DCFH-DA fluorescence” value (E. coli 1F28) was “triggered the production of ROS in a concentration-dependent manner”. For the same substance, the “inhibition of biofilm formation” value (E. coli 1F28 biofilm; 0.5 μg/mL, 37 °C, crystal violet OD570) was “significant inhibition effect”, the biofilm mass (E. coli 1F28 biofilm; 2 μg/mL or higher, crystal violet staining) was “drastically reduced” and the solubility [5] was “highest solubility”.

From article PMC7564829, “Potent Broad-Spectrum Antibacterial Activity of Amphiphilic Peptides against Multidrug-Resistant Bacteria” (Microorganisms, 2020)
